These results are taken from patent US20100048575A1, “NOVEL TETRACYCLIC INHIBITORS OF CYSTEINE PROTEASES, THE PHARMACEUTICAL COMPOSITIONS THEREOF AND THEIR THERAPEUTIC APPLICATIONS” (priority 2006, published 2010).

In one experiment the target is T1, USP8 (Homo sapiens, UniProt P40818).
T1 construct: His tag (from vector pFastBac-HT) (N); made in house; host or cells: insect cells (Sf9 or High Five), baculovirus
T1 sequence (P40818 1-1118): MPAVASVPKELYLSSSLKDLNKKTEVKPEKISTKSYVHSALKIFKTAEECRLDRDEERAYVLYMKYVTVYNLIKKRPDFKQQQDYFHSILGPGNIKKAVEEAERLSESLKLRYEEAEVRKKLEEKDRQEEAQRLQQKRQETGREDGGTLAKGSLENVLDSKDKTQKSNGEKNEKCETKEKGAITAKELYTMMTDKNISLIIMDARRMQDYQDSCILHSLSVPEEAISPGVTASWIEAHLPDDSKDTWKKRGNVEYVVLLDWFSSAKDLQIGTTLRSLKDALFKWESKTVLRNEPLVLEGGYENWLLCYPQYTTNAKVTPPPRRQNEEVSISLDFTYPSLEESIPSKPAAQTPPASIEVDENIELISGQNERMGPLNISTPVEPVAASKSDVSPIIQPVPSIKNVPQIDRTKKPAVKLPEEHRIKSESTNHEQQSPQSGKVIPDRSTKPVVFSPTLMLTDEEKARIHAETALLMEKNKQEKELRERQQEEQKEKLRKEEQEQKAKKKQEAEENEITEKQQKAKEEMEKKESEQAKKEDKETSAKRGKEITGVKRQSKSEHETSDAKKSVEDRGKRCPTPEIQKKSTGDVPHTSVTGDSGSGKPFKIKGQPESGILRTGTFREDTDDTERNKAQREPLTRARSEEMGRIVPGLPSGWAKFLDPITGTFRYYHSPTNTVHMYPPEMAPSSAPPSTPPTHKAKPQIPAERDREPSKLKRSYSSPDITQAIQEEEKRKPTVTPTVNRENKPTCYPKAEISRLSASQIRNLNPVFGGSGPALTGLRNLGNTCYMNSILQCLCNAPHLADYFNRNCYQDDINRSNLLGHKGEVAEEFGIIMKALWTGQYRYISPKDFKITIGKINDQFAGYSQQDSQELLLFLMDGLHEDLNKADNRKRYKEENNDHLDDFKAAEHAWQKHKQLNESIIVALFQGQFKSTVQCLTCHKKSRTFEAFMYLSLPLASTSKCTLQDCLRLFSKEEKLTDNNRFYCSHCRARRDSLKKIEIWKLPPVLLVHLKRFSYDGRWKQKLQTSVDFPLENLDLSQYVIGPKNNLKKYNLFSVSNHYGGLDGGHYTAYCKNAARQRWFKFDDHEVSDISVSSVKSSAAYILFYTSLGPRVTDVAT
In words: USP8 activity assay (Ub-AMC). The class given is biochemical. Particulars: 400 nM Ub-AMC, 630 pM enzyme, pH8.8, 30 min pre-incubation, 60 min at 37° C., sigmoidal fit; read-out: USP8 (inhibition of cysteine protease activity). An excerpt:
The cDNA encoding USP8 was obtained by PCR amplification from placenta mRNA. USP8 cDNA was subcloned by PCR into a baculovirus expression vector (pFastBac-HT; Invitrogen). A cDNA encoding a mutated USP8 was generated by mutagenic PCR. The corresponding protein encodes a cysteine to alanine substitution at residue 786. The sequences were ascertained by sequencing of the entire open reading frame. Bacmids encoding […] were generated following. DH10bac transposition. The corresponding bacmids were transfected into insect cells (Sf9). Viruses were recovered from culture supernatant and amplified twice. Insect cells (Sf9 or High Five; Invitrogen) were infected for 72 hours. Total cell lysates were harvested and lyzed in lysis buffer (Tris HCl 50 mM pH7.6; 0.75% NP40; 500 mM NaCl; 10% glycerol; 1 mM DTT; 10 mM imidazole; Protease Inhibitor Cocktail; AEBSF 20 μg.ml^−1; Aprotinin 10 μg.ml^−1). Proteins were affinity purified on metal affinity resins (Talon Metal affinity resin; BD Biosciences). Bound materials were extensively washed in wash buffer (50 mM Sodium Phosphate pH 7.0; 300 mM NaCl; 10 mM imidazole; 0.5% Triton X-100; 10% glycerol) and eluted from the resin in 250 mM imidazole-containing wash buffer. Proteins were dialyzed in dialysis buffer (Tris HCl pH 7.6 20 mM; NaCl 200 mM; DTT 1 mM; EDTA 1 mM; 10% Glycerol). Proteins purifications were analyzed on 4-12% NuPAGE (Invitrogen).
USP8 was diluted in USP buffer (50 mM Tris HCl; 0.5 mM EDTA; 5 mM DTT; 0.01% Triton X-100; Bovine Serum Albumin 0.05 mg.ml^−1 pH8.8). Compounds stocks (100 mM) were stored at −20° C. in DMSO.
Reactions were performed as duplicates in Black LJL 96 well plates (HE microplates; Molecular Devices; 20 μl final reaction volume). The substrate concentration for USP8 was 400 nM Ub-AMC (Boston Biochem). The concentrations of the enzyme (USP8) in specificity assays was 630 pM. The concentrations were determined in order to perform specificity assays under initial velocities at fixed substrate concentration. Compounds were pre-incubated with enzymes for 30 minutes at 25° C. Reactions were initiated by addition of substrate to the plates containing the enzymes (+/−compounds) diluted in assay buffer. Reactions were incubated for 60 minutes at 37° C. Reactions were stopped by adding acetic acid (100 mM final). Readings were performed on a Pherastar Fluorescent Reader (BMG). λ Emission 380 nm; λ Excitation=460 nm. Data (mean values +/−standard deviation) were analyzed as % of control (no compound) and plotted as percentage versus the Log of the compound concentration using GraphPad (Prism). Data were fitted to a sigmoidal model (variable slope).

For another experiment, the target named is T2, Uch-L3 (Homo sapiens, UniProt P15374).
T2 sequence (P15374 1-230): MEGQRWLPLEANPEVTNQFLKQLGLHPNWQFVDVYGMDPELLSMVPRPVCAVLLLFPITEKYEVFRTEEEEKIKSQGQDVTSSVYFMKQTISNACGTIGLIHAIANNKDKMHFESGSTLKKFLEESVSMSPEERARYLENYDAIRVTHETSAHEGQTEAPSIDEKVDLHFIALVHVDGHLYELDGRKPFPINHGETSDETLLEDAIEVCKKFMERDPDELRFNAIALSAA
Kind of experiment: UCH-L3 activity assay (Ub-AMC). The class given is biochemical. The note with it: 400 nM Ub-AMC, 13 pM enzyme, 30 min pre-incubation, 60 min at 37° C., sigmoidal fit; read-out: Uch-L3 (inhibition of cysteine protease activity). Here is the method:
Uch-L3 was diluted in USP buffer (50 mM Tris HCl; 0.5 mM EDTA; 5 mM DTT; 0.01% Triton X-100; Bovine Serum Albumin 0.05 mg.ml^−1 pH7.6). Compounds stocks (100 mM) were stored at −20° C. in DMSO. Compounds were tested at the following final concentrations: 100 μM; 33.3 μM; 11.1 μM; 3.7 μM; 1.23 μM; 412 nM; 137 nM; 45.7 nM, 15.2 nM; 5 nM.
Reactions were performed as duplicates in Black LJL 96 well plates (HE microplates; Molecular Devices; 20 μl final reaction volume). The substrate concentration for Uch-L3 was 400 nM Ub-AMC (Boston Biochem). The concentration of the enzyme (Uch-L3) in specificity assays was 13 pM. The concentrations were determined in order to perform specificity assays under initial velocities at fixed substrate concentration. Compounds were pre-incubated with enzymes for 30 minutes at 25° C. Reactions were initiated by addition of substrate to the plates containing the enzymes (+/−compounds) diluted in assay buffer.
Reactions were incubated for 60 minutes at 37° C. Reactions were stopped by adding acetic acid (100 mM final). Readings were performed on a Pherastar Fluorescent Reader (BMG). δ Emission 380 nm; 6 Excitation=460 nm. Data (mean values +/−standard deviation) were analyzed as % of control (no compound) and plotted as percentage versus the Log of the compound concentration using GraphPad (Prism). Data were fitted to a sigmoidal model (variable slope).

Structures are written as SMILES.

On to `C=CCON=C1c2ccccc2-c2nc3nnc(C)n3nc21` (mixture of isomers) [5c, 1-Methyl-2,3,4,10,10a-pentaaza-cyclopenta[b]fluoren-9-one O-allyl-oxime], for which the IC50 worked out at 47.7 µM at USP8 and 51 µM on Uch-L3.

`C=CCON=C1c2ccccc2-c2nc3nnc(CCCC)n3nc21` (mixture of isomers) [5e, 1-Butyl-2,3,4,110,10a-pentaaza-cyclopenta[b]fluoren-9-one O-allyl-oxime]: the IC50 at USP8 was found to be 35 µM; on Uch-L3, 89 µM.
